According to US20100003250A1, “(2-ARYL-7H-PYRROLO[2,3-D]PYRIMIDIN-4-YL)MORPHOLINE COMPOUNDS, THEIR USE AS MTOR KINASE AND PI3 KINASE INHIBITORS, AND THEIR SYNTHESES” (Wyeth, priority 2008, published 2010):

How the values were obtained:
Type in all cases: biochemical
[1] = molecular target: PI3Kα (Homo sapiens, UniProt P42336); test: PI3K-alpha fluorescence polarization assay; conditions: 20 μM PIP2, 25 μM ATP; read-out: PI3Kα Median IC50
[2] = molecular target: PI3Kγ (Homo sapiens, UniProt P48736); test: PI3K-gamma fluorescence polarization assay; conditions: 20 μM PIP2, 25 μM ATP; read-out: PI3Kγ Median IC50
Procedure: PI3K-alpha and PI3K-gamma Fluorescence Polarization Assay Protocols
The reaction buffer was 20 mM HEPES pH 7.5, 2 mM MgCl2, 0.05% CHAPS, and 0.01% βME (added fresh). The substrate solution was 40 μM PIP2 (diC8, Echelon, Salt Lake City Utah cat # P-4508, 1 mM in water) and 50 μM ATP in the reaction buffer. Nunc 384-well black polypropylene fluorescent plates were used for PI3K assays. The assay is run by putting 9.5 μl of freshly diluted enzyme in the reaction buffer per well, adding 0.5 μl of diluted drug or DMSO, and mixing. Then 10 μl of the substrate solution is added to each well to start the reaction. A final concentration of 20 μM PIP2 and 25 μM ATP in the reaction was used. Reactions were allowed to proceed for 30-60 minutes at room temperature. After 30-60 minutes, 20 μl of a solution of 10 nM TAMRA detector (Red detector probe-Echelon) and 2.5 μM of GST-murineGRP (1.5 mg/ml in 17% glycerol) was added per well to stop the reaction. The resulting solution was mixed well and allowed to stand for 90-110 minutes before reading plate. Assay Plates were read on Perkin-Elmer Envision plate readers with appropriate filters for Tamra [BODIPY-TMRI(1,3,4,5)P4]. Data obtained were used to calculate enzymatic activity and enzyme inhibition by inhibitor compounds. It is important to keep Red probe solutions dark. This procedure is adapted from Echelon Biosciences Inc procedure for their PI3-Kinase fluorescence polarization activity Assay kit Product number K-1100.

[3] = molecular target: T1, mTOR Kinase (FLAG-TOR) (Homo sapiens, UniProt P42345); test: mTOR kinase assay, purified enzyme, DELFIA format; conditions: 100 μM ATP, 1.25 μM His6-S6K; read-out: mTOR Kinase Median IC50
T1 construct: FLAG

Sequence of PI3Kα (P42336 whole entry, species assumed): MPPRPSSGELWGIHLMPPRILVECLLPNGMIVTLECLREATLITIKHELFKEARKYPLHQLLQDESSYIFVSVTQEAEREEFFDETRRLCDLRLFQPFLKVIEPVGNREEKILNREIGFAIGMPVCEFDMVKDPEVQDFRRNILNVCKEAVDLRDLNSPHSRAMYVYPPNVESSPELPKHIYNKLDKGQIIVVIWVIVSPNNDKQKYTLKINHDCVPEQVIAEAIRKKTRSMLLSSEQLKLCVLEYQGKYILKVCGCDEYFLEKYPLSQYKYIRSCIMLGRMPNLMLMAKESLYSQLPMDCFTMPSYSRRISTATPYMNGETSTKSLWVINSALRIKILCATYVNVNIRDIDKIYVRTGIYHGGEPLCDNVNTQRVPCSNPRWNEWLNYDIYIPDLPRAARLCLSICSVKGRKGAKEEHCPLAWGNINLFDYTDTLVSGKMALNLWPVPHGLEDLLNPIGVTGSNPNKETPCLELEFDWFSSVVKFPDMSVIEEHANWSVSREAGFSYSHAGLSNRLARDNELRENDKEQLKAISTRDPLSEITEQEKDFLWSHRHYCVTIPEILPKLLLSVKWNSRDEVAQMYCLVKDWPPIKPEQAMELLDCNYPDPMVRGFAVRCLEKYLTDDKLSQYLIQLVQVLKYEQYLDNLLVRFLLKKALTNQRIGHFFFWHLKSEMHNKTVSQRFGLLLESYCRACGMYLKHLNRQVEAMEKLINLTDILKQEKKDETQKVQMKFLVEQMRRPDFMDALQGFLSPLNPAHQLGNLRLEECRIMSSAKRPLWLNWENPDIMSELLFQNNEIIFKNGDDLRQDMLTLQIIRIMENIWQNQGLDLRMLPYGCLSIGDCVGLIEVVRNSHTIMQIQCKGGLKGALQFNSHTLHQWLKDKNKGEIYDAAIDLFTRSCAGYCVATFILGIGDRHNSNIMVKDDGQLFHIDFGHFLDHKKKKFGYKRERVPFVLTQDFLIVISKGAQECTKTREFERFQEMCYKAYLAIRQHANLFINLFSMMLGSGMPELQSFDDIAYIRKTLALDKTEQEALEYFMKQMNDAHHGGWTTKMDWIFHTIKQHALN
Sequence of PI3Kα (P27986 whole entry partner, species assumed): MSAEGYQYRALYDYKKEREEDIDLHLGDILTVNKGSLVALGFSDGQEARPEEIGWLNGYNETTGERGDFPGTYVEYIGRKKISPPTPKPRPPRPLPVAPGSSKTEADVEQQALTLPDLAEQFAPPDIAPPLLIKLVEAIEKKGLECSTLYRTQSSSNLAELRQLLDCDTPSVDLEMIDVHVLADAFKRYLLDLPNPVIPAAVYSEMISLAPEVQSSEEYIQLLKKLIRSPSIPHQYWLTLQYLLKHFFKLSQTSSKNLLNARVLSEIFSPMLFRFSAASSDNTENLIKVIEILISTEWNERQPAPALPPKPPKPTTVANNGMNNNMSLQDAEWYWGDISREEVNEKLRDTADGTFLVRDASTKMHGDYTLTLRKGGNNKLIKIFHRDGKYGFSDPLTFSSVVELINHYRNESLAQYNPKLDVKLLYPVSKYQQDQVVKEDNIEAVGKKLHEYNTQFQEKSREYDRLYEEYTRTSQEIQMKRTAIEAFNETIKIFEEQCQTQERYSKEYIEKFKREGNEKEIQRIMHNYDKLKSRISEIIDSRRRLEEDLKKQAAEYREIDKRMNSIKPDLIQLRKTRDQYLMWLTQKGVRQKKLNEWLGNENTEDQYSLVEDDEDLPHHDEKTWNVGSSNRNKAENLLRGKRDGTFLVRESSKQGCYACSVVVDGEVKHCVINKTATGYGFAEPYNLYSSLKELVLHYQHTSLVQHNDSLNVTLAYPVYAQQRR
Sequence of PI3Kγ (P48736 whole entry, species assumed): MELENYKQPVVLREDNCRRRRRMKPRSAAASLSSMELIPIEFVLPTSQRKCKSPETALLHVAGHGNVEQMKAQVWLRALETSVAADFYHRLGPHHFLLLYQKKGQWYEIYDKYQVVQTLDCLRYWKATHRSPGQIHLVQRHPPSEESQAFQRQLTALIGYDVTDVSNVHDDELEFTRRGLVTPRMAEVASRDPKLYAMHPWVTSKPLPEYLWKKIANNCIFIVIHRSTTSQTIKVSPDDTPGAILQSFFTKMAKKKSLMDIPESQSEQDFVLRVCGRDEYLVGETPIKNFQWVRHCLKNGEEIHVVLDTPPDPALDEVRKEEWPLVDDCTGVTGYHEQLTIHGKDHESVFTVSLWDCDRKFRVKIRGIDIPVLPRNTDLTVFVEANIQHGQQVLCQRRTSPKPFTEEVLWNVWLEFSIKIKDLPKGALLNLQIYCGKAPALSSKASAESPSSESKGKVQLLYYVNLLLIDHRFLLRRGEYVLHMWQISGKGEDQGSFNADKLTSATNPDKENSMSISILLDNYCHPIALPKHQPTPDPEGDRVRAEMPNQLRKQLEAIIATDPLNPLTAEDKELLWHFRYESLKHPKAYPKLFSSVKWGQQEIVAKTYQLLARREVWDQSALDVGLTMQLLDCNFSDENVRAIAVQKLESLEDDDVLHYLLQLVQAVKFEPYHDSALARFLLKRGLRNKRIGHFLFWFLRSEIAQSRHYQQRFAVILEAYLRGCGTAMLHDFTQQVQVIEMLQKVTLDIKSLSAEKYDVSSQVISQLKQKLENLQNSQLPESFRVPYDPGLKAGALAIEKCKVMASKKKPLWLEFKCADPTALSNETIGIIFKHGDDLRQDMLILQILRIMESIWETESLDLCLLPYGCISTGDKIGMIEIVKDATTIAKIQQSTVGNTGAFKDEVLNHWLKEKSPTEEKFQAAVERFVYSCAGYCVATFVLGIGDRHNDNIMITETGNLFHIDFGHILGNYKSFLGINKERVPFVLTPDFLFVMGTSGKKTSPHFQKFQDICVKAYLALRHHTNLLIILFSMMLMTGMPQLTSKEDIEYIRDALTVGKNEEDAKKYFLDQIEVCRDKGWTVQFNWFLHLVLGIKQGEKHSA

Structure (SMILES) | IC50 [1] [µM] | IC50 [2] [µM] | IC50 [3] [µM]
CN(C)CCn1ccc2c(N3CCOCC3)nc(-c3ccc(NC(=O)NCCc4c[nH]c5ccccc45)cc3)nc21 [Compound 18, 1-(4-{7-[2-(dimethylamino)ethyl]-4-morpholin-4-yl-7H-pyrrolo[2,3-d]pyrimidin-2-yl}phenyl)-3-[2-(1H-indol-3-yl)ethyl]urea] | 1.4 | 2.18 | 0.102
NC(=O)Nc1cccc(Cn2ccc3c(N4CCOCC4)nc(-c4cccc(CO)c4)nc32)c1 [Compound 19, 1-[3-({2-[3-(hydroxymethyl)phenyl]-4-morpholin-4-yl-7H-pyrrolo[2,3-d]pyrimidin-7-yl}methyl)phenyl]urea] | 0.099 | 0.868 | 0.435
NC(=O)Nc1cccc(Cn2ccc3c(N4CCOCC4)nc(-c4ccc(NC(=O)Nc5ccncc5)cc4)nc32)c1 [Compound 20, 1-(4-{7-[3-(carbamoylamino)benzyl]-4-morpholin-4-yl-7H-pyrrolo[2,3-d]pyrimidin-2-yl}phenyl)-3-pyridin-4-ylurea] | 0.061 | 0.196 | 0.0035
O=C(Nc1ccncc1)Nc1ccc(-c2nc(N3CCOCC3)c3ccn(CCNc4ccc(F)cc4)c3n2)cc1 [Compound 25, 1-[4-(7-{2-[(4-fluorophenyl)amino]ethyl}-4-morpholin-4-yl-7H-pyrrolo[2,3-d]pyrimidin-2-yl)phenyl]-3-pyridin-4-ylurea] | 0.041 | 0.418 | 0.033
CC(C)(C)NCCn1ccc2c(N3CCOCC3)nc(-c3ccc(NC(=O)Nc4ccncc4)cc3)nc21 [Compound 31, 1-(4-{7-[2-(tert-butylamino)ethyl]-4-morpholin-4-yl-7H-pyrrolo[2,3-d]pyrimidin-2-yl}phenyl)-3-pyridin-4-ylurea] | 0.086 | 0.404 | 0.0255
O=C(Nc1ccc(F)cc1)Nc1ccc(-c2nc(N3CCOCC3)c3ccn(CC(F)(F)F)c3n2)cc1 [Compound 38, 1-(4-fluorophenyl)-3-{4-[4-morpholin-4-yl-7-(2,2,2-trifluoroethyl)-7H-pyrrolo[2,3-d]pyrimidin-2-yl]phenyl}urea] | 0.082 | 1.53 | 0.00345

Compounds with a lower IC50 [1], results first:

IC50 [1] [µM] | IC50 [2] [µM] | IC50 [3] [µM] | Structure (SMILES)
0.014 | 0.245 | 0.0107 | O=C(Nc1ccncc1)Nc1ccc(-c2nc(N3CCOCC3)c3ccn(CCNCCc4cnc[nH]4)c3n2)cc1 [Compound 30, 1-{4-[7-(2-{[2-(1H-imidazol-5-yl)ethyl]amino}ethyl)-4-morpholin-4-yl-7H-pyrrolo[2,3-d]pyrimidin-2-yl]phenyl}-3-pyridin-4-ylurea]
0.037 | 0.245 | 0.023 | CC(C)NCCn1ccc2c(N3CCOCC3)nc(-c3ccc(NC(=O)Nc4ccncc4)cc3)nc21 [Compound 32, 1-(4-{7-[2-(isopropylamino)ethyl]-4-morpholin-4-yl-7H-pyrrolo[2,3-d]pyrimidin-2-yl}phenyl)-3-pyridin-4-ylurea]
0.012 | 0.1 | 0.0053 | CNCCn1ccc2c(N3CCOCC3)nc(-c3ccc(NC(=O)Nc4ccncc4)cc3)nc21 [Compound 33, 1-(4-{7-[2-(methylamino)ethyl]-4-morpholin-4-yl-7H-pyrrolo[2,3-d]pyrimidin-2-yl}phenyl)-3-pyridin-4-ylurea]
0.012 | 0.1 | 0.00155 | O=C(Nc1ccncc1)Nc1ccc(-c2nc(N3CCOCC3)c3ccn(CC4NC(=O)NC4=O)c3n2)cc1 (stereo not drawn) [Compound 35, 1-(4-{7-[(2,5-dioxoimidazolidin-4-yl)methyl]-4-morpholin-4-yl-7H-pyrrolo[2,3-d]pyrimidin-2-yl}phenyl)-3-pyridin-4-ylurea]
0.026 | 0.097 | 0.00109 | O=C(Nc1ccc(-c2nc(N3CCOCC3)c3ccn(CC(F)(F)F)c3n2)cc1)Nc1cccnc1 [Compound 37, 1-{4-[4-morpholin-4-yl-7-(2,2,2-trifluoroethyl)-7H-pyrrolo[2,3-d]pyrimidin-2-yl]phenyl}-3-pyridin-3-ylurea]
